US12083082B2, “Methods for treating neurodegenerative disorders” (Alzheon, Inc., priority 2018, dated 2024)

System: CYP
Assay: Metabolism and CYP interactions of 3-SPA
Text: ALZ-801 is a valine conjugate of tramiprosate that has been optimized for improved pharmacokinetic properties and gastrointestinal tolerability. Chronic toxicology studies required for the advancement of ALZ-801 to Phase 3 have been completed, including the nonclinical safety characterization of ALZ-801, and the safety bridge to the extensive nonclinical toxicology and safety data for tramiprosate. […] See Hey et al., Clinical Pharmacokinetics and Safety of ALZ-801, a Novel Prodrug of Tramiprosate in Development for the Treatment of Alzheimer's Disease. Clin Pharmacokinetics 2018; 315-333 and Kocis et al., Elucidating the Abeta42 Anti-Aggregation Mechanism of Action of Tramiprosate in Alzheimer's Disease: Integrating Molecular Analytical Methods. Pharmacokinetic and Clinical Data. CNS Drugs 2017; 31:495-509. […] Both ALZ-801 and tramiprosate have consistent elimination half-life in plasma across species following repeated oral doses of ALZ-801, indicating no potential for accumulation after chronic dosing. Following conversion of ALZ-801 to tramiprosate, tramiprosate is consistently metabolized in vivo into a single major metabolite, 3-sulfopropanoic acid (3-SPA), in humans, mice, rats, dogs and minipigs.

## O=C(O)CCS(=O)(=O)O [3-SPA, 3-sulfopropanoic acid]
  Further metabolism or CYP interactions (in words): No further metabolism or CYP interactions have been observed
